Results on two compounds are retold here after patent US20100168075A1, “Novel 2-Azetidinone Derivatives As Cholesterol Absorption Inhibitors For The Treatment Of Hyperlipidaemic Conditions” (ASTRAZENECA AB, priority 2005, published 2010).

In data set [1] the test system is ^14C-cholesterol absorption. In words: In vivo testing of cholesterol absorption inhibitors (A). The settings on record: Mus musculus, po; 0.2 μmol/kg, gavage, procedure A, C57BL/6 female mice. As for the experimental part:
In Vivo Testing of Cholesterol Absorption Inhibitors (A)
C57BL/6 female mice were maintained on regular chow diet and housed in individual cages to collect faeces. Mice were fasted for 3 hours and then gavaged with vehicle or compound. Half an hour later the mice were gavaged with radiolabelled cholesterol. Six hours after the ^14C-cholesterol gavage blood samples were taken via the tail and plasma prepared to determine how much cholesterol were absorbed. 24 hours after the gavage of ^14C-cholesterol the mice were bled and plasma were prepared for analysis. Faeces were collected for 24 hours to assess absorption efficiency.

For data set [2], the system named is Caco-2 cells. In words: Absorption in a Caco-2 cells model. It counts as in vitro ADME. As for the experimental part:
Absorption of the compounds of formula (I) was tested in a Caco-2 cells model (Gastroenterology 1989, 96, 736): […]

In general, inhibition refers to the relative decrease from the control value, in per cent. A low value points to a weak effect.

Turning to `N[C@H](CCCCNC(=O)CNC(=O)COc1ccc([C@@H]2[C@@H](SCC(O)c3ccc(F)cc3)C(=O)N2c2ccc(F)cc2)cc1)C(=O)O` (stereo partly drawn) [Example 10, N^6-(N-{[4-((2R,3R)-1-(4-fluorophenyl)-3-{[2-(4-fluorophenyl)-2-hydroxyethyl]thio}-4-oxoazetidin-2-yl)phenoxy]acetyl}glycyl)-D-lysine], the inhibition at 0.2 µmol/kg in data set [1] is 38%.

In turn, `CC(=O)[O-].C[N+](C)(C)CCNC(=O)[C@@H](CC1CCCCC1)NC(=O)CNC(=O)COc1ccc([C@@H]2[C@@H](SCC(O)c3ccc(F)cc3)C(=O)N2c2ccc(F)cc2)cc1` (stereo partly drawn) [Example 17, N-{[4-((2R,3R)-1-(4-fluorophenyl)-3-{[(2R or $)-2-(4-fluorophenyl)-2-hydroxyethyl]thio}-4-oxoazetidin-2-yl)phenoxy]acetyl}glycyl-3-cyclohexyl-N-[2-(trimethylammonio)ethyl]-D-alaninamide acetate] gave a Caco value in data set [2] of 0.61 ×10⁻⁶ cm/s.
